Source: the NIST ThermoML archive (doi:10.1016/j.tca.2013.08.031)
Numbers after ± are expanded uncertainties.

Assay: molar heat capacity at constant volume
Conditions: Fluid (supercritical or subcritical phases), Vacuum adiabatic calorimetry

CCC(C)O (configuration not stated) [butan-2-ol]
Conditions | molar heat capacity at constant volume [J/K/mol]
462.76 K, Mass density=598.18 kg/m3 | 276.1 ± 2.8
462.95 K, Mass density=598.18 kg/m3 | 279.07 ± 2.8
463.15 K, Mass density=598.18 kg/m3 | 277.81 ± 2.9
463.35 K, Mass density=598.18 kg/m3 | 282.48 ± 3
463.45 K, Mass density=598.18 kg/m3 | 292.34 ± 3
463.74 K, Mass density=598.18 kg/m3 | 258.76 ± 2.7
463.93 K, Mass density=598.18 kg/m3 | 219.18 ± 2.4
464.13 K, Mass density=598.18 kg/m3 | 217.62 ± 2.4
464.33 K, Mass density=598.18 kg/m3 | 217.32 ± 2.4
464.53 K, Mass density=598.18 kg/m3 | 218.88 ± 2.3
464.72 K, Mass density=598.18 kg/m3 | 216.73 ± 2.2
464.92 K, Mass density=598.18 kg/m3 | 217.62 ± 2.2
465.11 K, Mass density=598.18 kg/m3 | 217.55 ± 2.2
465.31 K, Mass density=598.18 kg/m3 | 218.07 ± 2.2
467.66 K, Mass density=598.18 kg/m3 | 219.18 ± 2.2
467.86 K, Mass density=598.18 kg/m3 | 218.88 ± 2.2
468.05 K, Mass density=598.18 kg/m3 | 218.44 ± 2.2
468.25 K, Mass density=598.18 kg/m3 | 219.84 ± 2.2
468.45 K, Mass density=598.18 kg/m3 | 219.92 ± 2.2
469.23 K, Mass density=598.18 kg/m3 | 222.44 ± 2.2
469.42 K, Mass density=598.18 kg/m3 | 222.36 ± 2.2
481.46 K, Mass density=538.17 kg/m3 | 279.66 ± 2.8
481.66 K, Mass density=538.17 kg/m3 | 284.78 ± 2.9
481.85 K, Mass density=538.17 kg/m3 | 283.59 ± 2.9
482.04 K, Mass density=538.17 kg/m3 | 284.55 ± 2.9
482.24 K, Mass density=538.17 kg/m3 | 286.41 ± 2.9
482.43 K, Mass density=538.17 kg/m3 | 287.44 ± 2.9
482.62 K, Mass density=538.17 kg/m3 | 289.22 ± 2.9
482.81 K, Mass density=538.17 kg/m3 | 288.41 ± 2.9
483.01 K, Mass density=538.17 kg/m3 | 289 ± 2.9
483.2 K, Mass density=538.17 kg/m3 | 291.15 ± 3
483.39 K, Mass density=538.17 kg/m3 | 289.82 ± 2.9
483.58 K, Mass density=538.17 kg/m3 | 289.59 ± 2.9
483.78 K, Mass density=538.17 kg/m3 | 289.59 ± 2.9
487.62 K, Mass density=538.17 kg/m3 | 282.7 ± 2.9
487.81 K, Mass density=538.17 kg/m3 | 280.25 ± 2.8
488 K, Mass density=538.17 kg/m3 | 282.4 ± 2.8
488.19 K, Mass density=538.17 kg/m3 | 287.74 ± 2.9
488.39 K, Mass density=538.17 kg/m3 | 290.63 ± 2.9
489.53 K, Mass density=538.17 kg/m3 | 283.44 ± 2.9
489.73 K, Mass density=538.17 kg/m3 | 289.07 ± 2.9
489.92 K, Mass density=538.17 kg/m3 | 294.19 ± 3
490.11 K, Mass density=538.17 kg/m3 | 289.3 ± 2.9
490.87 K, Mass density=538.17 kg/m3 | 282.03 ± 2.8
491.06 K, Mass density=538.17 kg/m3 | 283.07 ± 2.8
491.45 K, Mass density=538.17 kg/m3 | 285.52 ± 2.9
491.64 K, Mass density=538.17 kg/m3 | 290.85 ± 3
491.83 K, Mass density=538.17 kg/m3 | 286.92 ± 2.9
492.02 K, Mass density=538.17 kg/m3 | 283.07 ± 2.9
492.21 K, Mass density=538.17 kg/m3 | 281.44 ± 3
492.4 K, Mass density=538.17 kg/m3 | 282.18 ± 3
492.59 K, Mass density=538.17 kg/m3 | 258.31 ± 2.7
